Test results reported in patent publication US12692264B2, “Pyrimidine or pyridine derivative, preparation method therefor, and application thereof in pharmacy” (ABBISKO THERAPEUTICS CO., LTD., priority 2021, dated 2026).

How the values were obtained:
Format in all cases: cell-based
[1] = molecular target: Ba/F3 EGFR-V769_D770insASV (Homo sapiens, UniProt P00533, DUP767-769, cells depend on it); assay: Cell proliferation study (CellTiter-Glo, 72 hrs), Ba/F3 EGFR-V769_D770insASV; conditions: CTG, * = average of multiple measurements, read-out: Ba/F3 EGFR-V769_D770insASV IC50
Experimental: (§1) (I) Reagents and Materials
(§2) • Fetal bovine serum FBS (GBICO, Cat #10099-141); • CellTiter-Glo® luminescent cell viability assay kit (Promega, Cat #G7572); • Black transparent flat-bottom 96-well plate (Corning®, Cat #3603). (II) Instruments • SpectraMax multi-label microplate reader MD, 2104-0010A; • Carbon dioxide incubator, Thermo Scientific 3100 series; • Biological safety cabinet, Thermo Scientific, 1300 series model A2; • Inverted microscope, Olympus, CKX41SF; • Siemens refrigerator KK25E76T1. (III) Cell Lines and Culture Conditions
(§3) (IV) Experimental Procedures 1. Cell Culture and Inoculation: • (1) Cells in the logarithmic growth phase were harvested and counted using a […]. The cell viability was determined by the trypan blue dye exclusion method to ensure cell viability above 90%. • (2) The cell concentration was adjusted to reach a desired final density; 90 μL of cell suspension was added to a 96-well plate. • (3) The cells were incubated overnight in the 96-well plate at 37° C., 5% CO2 and with 95% humidity. 2. T0 Benchmark Data: • (1) 10 μL of PBS was added to each well of the TO plate containing the cells. • (2) The CTG reagent was thawed and the cell plate was equilibrated to room temperature for 30 min. • (3) An equal volume of CTG solution was added to each well. • (4) The cells were lysed by shaking on an orbital shaker for 5 min. • (5) The cell plate was left to stand at room temperature for 20 min to stabilize the fluorescence signal. • (6) The fluorescence signal values of TO were read. 3. Dilution and Addition of Compounds • (1) According to the compound information table, a corresponding volume of DMSO was added to the corresponding compound powder to prepare a 10 mM stock solution. • (2) A 1000-fold, 3.16-fold-diluted compound solution was prepared. • (3) The 1000× diluted compound solution was diluted 100-fold with PBS to prepare a 10-fold compound solution with a maximum concentration of 10 μM, including 9 concentrations, with 3.16-fold dilution, and 10 μL of the medicament solution was added to each well of the 96-well plate to seed the cells. Triplicate wells were set for each compound concentration, with a final concentration of DMSO being 0.1%. • (4) The cells were placed in the 96-well plate containing the medicament at 37° C., 5% CO2 and with 95% humidity, and cultured for 72 hrs before CTG analysis. 4. Fluorescence Signal Reading • (1) The CTG reagent was thawed and the cell plate was equilibrated to room temperature for 30 min. • (2) An equal volume of CTG solution was added to each well. • (3) The cells were lysed by shaking on an orbital shaker for 5 min. • (4) The cell plate was left to stand at room temperature for 20 min to stabilize the fluorescence signal. • (5) The fluorescence values were read. 5. Data Processing
(§4) Data were analyzed using GraphPad Prism 7.0 software and fitted data were regressed using non-linear S-curves to obtain dose-response curves from which IC50 values (in nM) were calculated.

[2] = molecular target: Ba/F3 EGFR-D770-N771ins_SVD (Homo sapiens, UniProt P00533, DUP768-770, cells depend on it); assay: Cell proliferation study (CellTiter-Glo, 72 hrs), Ba/F3 EGFR-D770-N771ins_SVD; conditions: CTG, * = average of multiple measurements, read-out: Ba/F3 EGFR-D770-N771ins_SVD IC50
How it was run: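 Cells were seeded overnight, then exposed for 72 hrs at 37 °C, 5% CO2 to 9 concentrations in 3.16-fold steps, 0.1% DMSO final, triplicate wells. Viability was read by CellTiter-Glo luminescence, with a T0 plate read at dosing. IC50 came from nonlinear sigmoidal dose-response fits.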

A431 (EGFR-WT) = assay: Cell proliferation study (CellTiter-Glo, 72 hrs), A431; conditions: Homo sapiens, A-431, A431 cells, CTG, * = average of multiple measurements
Experimental: as §1, §2, §3, §4

Chain of Ba/F3 EGFR-V769_D770insASV (P00533 with tags, fused parts or gaps DUP767-769): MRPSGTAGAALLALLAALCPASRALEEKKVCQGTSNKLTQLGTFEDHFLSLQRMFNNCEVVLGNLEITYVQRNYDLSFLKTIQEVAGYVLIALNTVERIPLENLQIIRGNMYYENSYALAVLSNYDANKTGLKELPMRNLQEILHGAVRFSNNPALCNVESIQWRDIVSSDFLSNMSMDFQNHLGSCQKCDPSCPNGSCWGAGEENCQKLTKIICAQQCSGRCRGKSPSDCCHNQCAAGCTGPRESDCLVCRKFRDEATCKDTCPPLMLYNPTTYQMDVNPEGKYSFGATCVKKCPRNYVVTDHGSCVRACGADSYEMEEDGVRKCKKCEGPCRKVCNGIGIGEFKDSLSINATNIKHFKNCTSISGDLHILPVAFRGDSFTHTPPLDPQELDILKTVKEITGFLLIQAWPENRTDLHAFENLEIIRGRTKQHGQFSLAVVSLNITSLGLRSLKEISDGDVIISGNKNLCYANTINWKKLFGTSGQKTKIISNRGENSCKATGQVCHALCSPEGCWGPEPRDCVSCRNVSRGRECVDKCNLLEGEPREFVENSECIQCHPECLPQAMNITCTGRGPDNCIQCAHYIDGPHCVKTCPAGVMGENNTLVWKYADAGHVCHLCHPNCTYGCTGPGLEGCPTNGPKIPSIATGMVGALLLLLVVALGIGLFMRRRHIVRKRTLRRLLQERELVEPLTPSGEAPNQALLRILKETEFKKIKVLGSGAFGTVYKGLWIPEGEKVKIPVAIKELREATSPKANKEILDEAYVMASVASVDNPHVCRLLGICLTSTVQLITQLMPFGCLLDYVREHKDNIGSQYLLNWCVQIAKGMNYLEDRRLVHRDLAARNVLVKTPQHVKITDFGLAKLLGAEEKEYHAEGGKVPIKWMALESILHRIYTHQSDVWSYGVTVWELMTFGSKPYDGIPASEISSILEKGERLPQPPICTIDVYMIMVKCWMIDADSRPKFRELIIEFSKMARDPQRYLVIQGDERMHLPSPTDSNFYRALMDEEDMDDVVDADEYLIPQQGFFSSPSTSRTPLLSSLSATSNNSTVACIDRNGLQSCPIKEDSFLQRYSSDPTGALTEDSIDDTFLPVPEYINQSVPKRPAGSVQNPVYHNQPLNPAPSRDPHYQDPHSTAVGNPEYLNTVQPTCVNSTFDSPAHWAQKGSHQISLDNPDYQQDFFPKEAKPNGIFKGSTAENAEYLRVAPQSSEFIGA
Chain of Ba/F3 EGFR-D770-N771ins_SVD (P00533 with tags, fused parts or gaps DUP768-770): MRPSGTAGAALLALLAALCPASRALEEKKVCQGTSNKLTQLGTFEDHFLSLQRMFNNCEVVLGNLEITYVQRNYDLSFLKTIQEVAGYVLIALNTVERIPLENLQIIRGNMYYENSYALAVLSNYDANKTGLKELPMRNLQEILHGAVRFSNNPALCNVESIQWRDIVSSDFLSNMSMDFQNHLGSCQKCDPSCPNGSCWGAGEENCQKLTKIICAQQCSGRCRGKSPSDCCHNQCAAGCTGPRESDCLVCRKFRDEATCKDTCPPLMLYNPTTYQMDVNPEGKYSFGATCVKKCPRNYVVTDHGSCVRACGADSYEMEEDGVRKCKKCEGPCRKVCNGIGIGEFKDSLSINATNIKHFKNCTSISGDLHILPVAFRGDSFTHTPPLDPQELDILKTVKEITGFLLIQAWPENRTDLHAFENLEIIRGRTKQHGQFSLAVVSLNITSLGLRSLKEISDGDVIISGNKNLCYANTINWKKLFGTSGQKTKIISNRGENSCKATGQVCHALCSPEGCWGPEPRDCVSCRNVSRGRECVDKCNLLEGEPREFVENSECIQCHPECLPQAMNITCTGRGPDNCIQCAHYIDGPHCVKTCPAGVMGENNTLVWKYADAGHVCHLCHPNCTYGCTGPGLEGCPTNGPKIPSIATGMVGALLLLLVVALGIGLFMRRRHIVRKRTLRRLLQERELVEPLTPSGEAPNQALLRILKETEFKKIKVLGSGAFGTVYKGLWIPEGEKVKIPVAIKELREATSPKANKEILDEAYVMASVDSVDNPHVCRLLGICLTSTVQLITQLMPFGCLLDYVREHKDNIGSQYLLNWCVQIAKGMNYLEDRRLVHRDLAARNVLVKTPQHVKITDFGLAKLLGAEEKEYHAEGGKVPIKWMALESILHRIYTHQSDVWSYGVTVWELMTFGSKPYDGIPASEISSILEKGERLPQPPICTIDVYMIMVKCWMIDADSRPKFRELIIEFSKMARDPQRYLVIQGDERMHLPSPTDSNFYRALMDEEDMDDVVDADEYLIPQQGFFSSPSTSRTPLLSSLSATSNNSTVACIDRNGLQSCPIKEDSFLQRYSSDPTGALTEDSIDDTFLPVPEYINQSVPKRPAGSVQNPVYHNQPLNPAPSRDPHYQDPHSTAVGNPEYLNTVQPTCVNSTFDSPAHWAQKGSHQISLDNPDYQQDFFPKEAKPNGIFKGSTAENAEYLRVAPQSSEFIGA

C=CC(=O)Nc1cc(Nc2ncc(C(=O)OC(C)C)c(N3CC4(CCC4)c4nc(-c5cnn(C)c5)ccc43)n2)c(OC)cc1N(C)CCN(C)C [Example 10, isopropyl 2-((5-acrylamido-4-((2-(dimethylami-no)ethyl)(methyl)amino)-2-methoxy-phenyl)amino)-4-(5′-(1-methyl-1H-pyrazol-4-yl)spiro(cyclobutane-1,3′-pyrrolo[3,2-b]pyridin)-1′(2′H)-yl)pyrimidine-5-carboxylate]
GI50 [1]: 39.4 nM | GI50 [2]: 36.9 nM | IC50 (A431 (EGFR-WT)): 278 nM

C=CC(=O)Nc1cc(Nc2ncc(C(=O)OC(C)C)c(N3CC(C)(C)c4nc(C)ccc43)n2)c(OC)cc1N(C)CCNC [Example 15, isopropyl 2-((5-acrylamido-2-methoxy-4-(methyl (2-(methylamino)ethyl)amino)phenyl)amino)-4-(3,3,5-trimethyl-2,3-dihydro-1H-pyrrolo[3,2-b]pyridin-1-yl)pyrimidine-5-carboxylate]
GI50 [1]: 49.2 nM | GI50 [2]: 35 nM | IC50 (A431 (EGFR-WT)): 879 nM

C=CC(=O)Nc1cc(Nc2ncc(C(=O)OC(C)C)c(N3CC(C)(C)c4nc(C)ccc43)n2)c(OC)cc1NCCN(C)C [Example 55, isopropyl 2-((5-acrylamido-4-((2-(dimethylami-no)ethyl)amino)-2-methoxy-phenyl)amino)-4-(3,3,5-trimethyl-2,3-dihydro-1H-pyrrolo[3,2-b]pyridin-1-yl)pyrimidine-5-carboxylate]
GI50 [1]: 52 nM | GI50 [2]: 22.8 nM | IC50 (A431 (EGFR-WT)): 432 nM

C=CC(=O)Nc1cc(Nc2ncc(C(=O)OC(C)C)c(N3CC(C)(C)c4nc(C)ccc43)n2)c(OC)cc1N1C[C@H]2CN(C)C[C@H]2C1 [Example 58, isopropyl 2-((5-acrylamido-2-methoxy-4-((3aR,6aS)-5-methylhexahydro-pyrrolo[3,4-c]pyrrol-2(1H)-yl)phenyl)amino)-4-(3,3,5-trimethyl-2,3-dihydro-1H-pyrrolo[3,2-b]pyridin-1-yl)pyrimidine-5-carboxylate]
GI50 [1]: 38.1 nM | GI50 [2]: 28.7 nM | IC50 (A431 (EGFR-WT)): 1280 nM

C=CC(=O)Nc1cc(Nc2ncc(C(=O)OC(C)C)c(N3CC(C)(C)c4nc(C#CC)ccc43)n2)c(OC)cc1N1CC(N(C)C)C1 [Example 76, isopropyl 2-((5-acrylamido-4-(3-(dimethylami-no)azetidin-1-yl)-2-methoxyphenyl)ami-no)-4-(3,3-dimethyl-5-(prop-1-yn-1-yl)-2,3-dihydro-1H-pyrrolo[3,2-b]pyridin-1-yl)pyrimidine-5-carboxylate]
GI50 [1]: 93.9 nM | GI50 [2]: 30.9 nM | IC50 (A431 (EGFR-WT)): 1260 nM

[2H]C1([2H])N(c2nc(Nc3cc(NC(=O)C=C)c(N4CC(N(C)C)C4)cc3OC)ncc2C(=O)OC(C)C)c2ccc(C)nc2C1(C)C [Example 50, isopropyl 2-((5-acrylamido-4-(3-(dimethylami-no)azetidin-1-yl)-2-methoxy-phenyl)amino)-4-(3,3,5-trimethyl-2,3-dihydro-1H-pyrrolo[3,2-b]pyridin-1-yl-2,2-d2)pyrimidine-5-carboxylate]
GI50 [1]: 27.9 nM | GI50 [2]: 36.7 nM | IC50 (A431 (EGFR-WT)): 813 nM

[2H]C1([2H])N(c2nc(Nc3cc(NC(=O)C=C)c(N4CC[C@@H](N(C)C)C4)cc3OC)ncc2C(=O)OC(C)C)c2ccc(C)nc2C1(C)C [Example 49, isopropyl (R)-2-((5-acrylamido-4-(3-(dimethyl-amino)pyrrolidin-1-yl)-2-methoxy-phenyl)amino)-4-(3,3,5-trimethyl-2,3-dihydro-1H-pyrrolo[3,2-b]pyridin-1-yl-2,2-d2)pyrimidine-5-carboxylate]
GI50 [1]: 24.4 nM | GI50 [2]: 31.3 nM | IC50 (A431 (EGFR-WT)): 1420 nM

C=CC(=O)Nc1cc(Nc2ncc(C(=O)OC(C)C)c(N3CC(C)(C)c4nc(Cl)ccc43)n2)c(OC)cc1N(C)CCN(C)C [Example 57, isopropyl 2-((5-acrylamido-4-((2-(dimethylami-no)ethyl)(methyl)amino)-2-methoxy-phenyl)amino)-4-(5-chloro-3,3-dimethyl-2,3-dihydro-1H-pyrrolo[3,2-b]pyridin-1-yl)pyrimidine-5-carboxylate]
GI50 [1]: 62.4 nM | GI50 [2]: 23.3 nM | IC50 (A431 (EGFR-WT)): 988 nM

[2H]C([2H])([2H])N(CCN(C)c1cc(OC)c(Nc2ncc(C(=O)OC(C)C)c(N3CC(C)(C)c4nc(C)ccc43)n2)cc1NC(=O)C=C)C([2H])([2H])[2H] [Example 42, isopropyl 2-((5-acrylamido-4-((2-(bis(methyl-d3)amino)ethyl)(methyl)amino)-2-methoxyphenyl)amino)-4-(3,3,5-trimethyl-2,3-dihydro-1H-pyrrolo[3,2-b]pyridin-1-yl)pyrimidine-5-carboxylate]
GI50 [1]: 23.6 nM | GI50 [2]: 11.3 nM | IC50 (A431 (EGFR-WT)): 114 nM

C=CC(=O)Nc1cc(Nc2ncc(C(=O)OC(C)C)c(N3CC(C)(C)c4nc(C)ccc43)n2)c(OC)cc1N1CCC[C@@H]1CN(C)C [Example 83, isopropyl (R)-2-((5-acrylamido-4-(2-((dimethyl-amino)methyl)pyrrolidin-1-yl)-2-meth-oxyphenyl)amino)-4-(3,3,5-trimethyl-2,3-dihydro-1H-pyrrolo[3,2-b]pyridin-1-yl)pyrimidine-5-carboxylate]
GI50 [1]: 13.6 nM | GI50 [2]: 10.9 nM | IC50 (A431 (EGFR-WT)): 57 nM

[2H]C([2H])([2H])N(CCN(C)C)c1cc(OC)c(Nc2ncc(C(=O)OC(C)C)c(N3c4ccc(C)nc4C(C)(C)C3([2H])[2H])n2)cc1NC(=O)C=C [Example 71, isopropyl 2-((5-acrylamido-4-((2-(dimethylami-no)ethyl)(methyl-d3)amino)-2-methoxy-phenyl)amino)-4-(3,3,5-trimethyl-2,3-dihydro-1H-pyrrolo[3,2-b]pyridin-1-yl-2,2-d2)pyrimidine-5-carboxylate]
GI50 [1]: 30.4 nM | GI50 [2]: 14.8 nM | IC50 (A431 (EGFR-WT)): 65.5 nM

C=CC(=O)Nc1cc(Nc2ncc(C(=O)OC(C)C)c(N3CC(C)(C)c4nc(C#CC)ccc43)n2)c(OC)cc1N1CCC[C@@H]1CN(C)C [Example 79, isopropyl (R)-2-((5-acrylamido-4-(2-((dimethyl-amino)methyl)pyrrolidin-1-yl)-2-meth-oxyphenyl)amino)-4-(3,3-dimethyl-5-(prop-1-yn-1-yl)-2,3-dihydro-1H-pyrrolo[3,2-b]pyridin-1-yl)pyrimidine-5-carboxylate]
GI50 [1]: 58.2 nM | GI50 [2]: 20.2 nM | IC50 (A431 (EGFR-WT)): 252 nM

[2H]C([2H])([2H])N(CCN(C([2H])([2H])[2H])C([2H])([2H])[2H])c1cc(OC)c(Nc2ncc(C(=O)OC(C)C)c(N3c4ccc(C)nc4C(C)(C)C3([2H])[2H])n2)cc1NC(=O)C=C [Example 78, isopropyl 2-((5-acrylamido-4-((2-(bis(methyl-d3)amino)ethyl)(methyl-d3)amino)-2-methoxyphenyl)amino)-4-(3,3,5-tri-methyl-2,3-dihydro-1H-pyrrolo[3,2-b]pyridin-1-yl-2,2-d2)pyrimidine-5-carboxylate]
GI50 [1]: 36.4 nM | GI50 [2]: 12.3 nM | IC50 (A431 (EGFR-WT)): 72 nM

C=CC(=O)Nc1cc(Nc2ncc(C(=O)OC(C)C)c(N3CC4(CC4)c4nc(C)ccc43)n2)c(OC)cc1N1C[C@@H](F)C[C@@H]1CN(C)C [Example 64, isopropyl 2-((5-acrylamido-4-((2R,4S)-2-((di-methylamino)methyl)-4-fluoro-pyrrolidin-1-yl)-2-methoxy-phenyl)amino)-4-(5′-methyl-spiro(cyclopropane-1,3′-pyrrolo[3,2-b]pyridin)-1′(2′H)-yl)pyrimidine-5-carboxylate]
GI50 [1]: 12.3 nM | GI50 [2]: 8.8 nM | IC50 (A431 (EGFR-WT)): 39.7 nM
